Measured values: PubChem BioAssay (NCI)
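Dose response: 5 concentrations. Exposure: 48 h. Format: 96-well plates. Endpoint: linear interpolation; highest concentration if not reached. GI50: concentration for 50% inhibition of growth. TGI: concentration producing complete growth inhibition.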

Key:
Assay in all cases: NCI anticancer screen, dose series, 48 h
[1] = system: HCT-116 colon
[2] = system: RPMI-8226 leukemia
[3] = system: CAKI-1 renal
[4] = system: SK-MEL-5 melanoma
[5] = system: SW-620 colon
[6] = system: U251 CNS
[7] = system: OVCAR-3 ovarian
[8] = system: HOP-92 NSCLC
[9] = system: COLO 205 colon
[10] = system: OVCAR-8 ovarian

| Structure (SMILES) | TGI [1] | TGI [2] | TGI [3] | TGI [4] | TGI [5] | TGI [6] | TGI [7] | TGI [8] | TGI [9] | TGI [10] | GI50 [1] | GI50 [2] | GI50 [3] | GI50 [4] | GI50 [5] | GI50 [6] | GI50 [7] | GI50 [8] | GI50 [9] | GI50 [10] |
| --- | --- | --- | --- | --- | --- | --- | --- | --- | --- | --- | --- | --- | --- | --- | --- | --- | --- | --- | --- | --- |
| CCO[C@@H]1C2C=CC(C2)[C@H]1[N+](=O)[O-] (stereo not given in full) | > 100 µM | > 100 µM | > 100 µM | > 100 µM | > 100 µM | > 100 µM | > 100 µM | > 100 µM | > 100 µM | > 100 µM |  |  |  |  |  |  |  |  |  |  |
| Cc1ccc2c(c1)ncn2-c1ncnc2c1CC(C)c1ccccc1N2C (stereo not given) | 13 µM | 1.82 µM | 13.7 µM | 1.32 µM | 15.9 µM | 13.9 µM | 0.409 µM | 18.7 µM | 0.666 µM | 22.9 µM | 0.0669 µM | 0.149 µM | 0.127 µM | 0.138 µM | 0.0435 µM | 0.086 µM | 0.0389 µM | 3.77 µM | 0.198 µM | 0.381 µM |
| CCSc1nc(COC(=O)NC)c(COC(=O)NC)n1C | > 100 µM | > 100 µM | > 78.2 µM | > 100 µM | > 100 µM | > 100 µM | > 100 µM | > 90.6 µM | > 85.1 µM | > 100 µM |  |  |  |  |  |  |  |  |  |  |
| Nc1nc(OCc2ccccc2)nc2[nH]ncc12 | 39 µM | 38.6 µM | 33.2 µM | 28.3 µM | 39.3 µM | 42.2 µM | 25.2 µM | > 100 µM | 40.4 µM | > 100 µM | 19.7 µM | 15.2 µM | 11.1 µM | 14.9 µM | 18.9 µM | 18.9 µM | 11.5 µM | > 100 µM | 18.5 µM | > 100 µM |
| COc1ccc2c(c1)C(=O)c1c-2n(CCCN2CCOCC2)c(=O)c2ccccc12 | 4.54 µM | 5.59 µM | 8.07 µM | 2.68 µM | > 100 µM | 11.6 µM | 12.2 µM | > 57.5 µM | > 41 µM | > 100 µM | 1.66 µM | 1.35 µM | 1.79 µM | 1.37 µM | 2.31 µM | 2.01 µM | 2.94 µM | 8.39 µM | 2.81 µM | 3.45 µM |
| N#Cc1ccccc1NC(=O)c1ccccc1 | > 100 µM | > 100 µM | > 100 µM | > 100 µM | > 100 µM | > 100 µM | > 100 µM | > 100 µM | > 100 µM | > 100 µM |  |  |  |  |  |  |  |  |  |  |
| O=C(NN1C(=O)CSC1c1ccc(Cl)cc1)c1[nH]c2ccc(F)cc2c1-c1ccccc1 (stereo not given) | 4.11 µM | 6.24 µM | 17.2 µM | 16 µM | 8.92 µM | 8.38 µM | 3.53 µM | 6.6 µM | 4.81 µM | 20.6 µM | 1.87 µM | 2.13 µM | 5.07 µM | 5.92 µM | 2.98 µM | 3.14 µM | 1.85 µM | 2.42 µM | 2.2 µM | 4.34 µM |
| COC(=O)[C@@H]1CCCN1C(=O)[C@@H]1CCCN1C(=O)[C@@H](Cc1c[nH]c2ccccc12)NC(=S)Nc1cc(C(F)(F)F)cc(C(F)(F)F)c1 | > 100 µM | > 100 µM | > 100 µM | 5.52 µM | > 100 µM | 95.3 µM | 52.2 µM | 5.26 µM | 5.5 µM | > 100 µM | 4.03 µM | 3.34 µM | 16.9 µM | 2.13 µM | 4.34 µM | 4.31 µM | 3.8 µM | 1.46 µM | 2.41 µM | 5.83 µM |
| C=CCc1ccc(O)c(-c2cc(C3Oc4c(-c5cc(CC=C)ccc5O)cc(O)cc4[C@@H]3CO)ccc2O)c1 (stereo not given in full) | 43.3 µM | 65.6 µM | > 100 µM | 65 µM | 31.1 µM | 68.7 µM | 74.5 µM | 64.9 µM | > 100 µM | > 100 µM |  |  |  |  |  |  |  |  |  |  |
| Fc1ccc(Nc2nc(NCCNc3ccnc4cc(Cl)ccc34)nc(N3CCOCC3)n2)cc1 | 17 µM | 14.6 µM | 19.5 µM | 4.62 µM | 16.4 µM | 17.5 µM | 24.5 µM | 6.88 µM | 3.26 µM | 40.6 µM | 4.82 µM | 3.15 µM | 5.59 µM | 2.15 µM | 4.21 µM | 4.72 µM | 11.9 µM | 1.03 µM | 1.71 µM | 11.6 µM |
| C=C(C)CCC(C)N1CCC(N2CCC(C(=O)NCCc3ccccc3)CC2)CC1 (stereo not given) | > 100 µM | > 100 µM | 75.4 µM | 16.8 µM | > 100 µM | 33 µM | > 100 µM | 62 µM | 33.8 µM | > 100 µM | 16.8 µM | 10.1 µM | 17.3 µM | 4.2 µM | 24.7 µM | 14.4 µM | 53.7 µM | 13.4 µM | 13.4 µM | 27.8 µM |
| N#CC1C(N)=NNC12Nc1ccccc1N2 (stereo not given) | > 100 µM | 7.8 µM | 74.5 µM | 21.2 µM | > 100 µM | > 100 µM | 19.4 µM | 34.5 µM | 48.9 µM | 21.4 µM | 34.1 µM | 2.91 µM | 11.7 µM | 4.11 µM | 26.8 µM | 22.6 µM | 3.16 µM | 2.2 µM | 16.5 µM | 0.2 µM |
| CC(C)OC(=O)c1ccc2[nH]c(O)c(C(=Nc3ccc(N(C)C(=O)CN4CCN(C)CC4)cc3)c3ccccc3)c2c1 | 1.28 µM | 1.79 µM | 1.12 µM | 1.8 µM | 1.62 µM | 2.4 µM | 2.02 µM | 1.71 µM | 1.41 µM | 3.17 µM | 0.149 µM | 0.385 µM | 0.0952 µM | 0.541 µM | 0.369 µM | 0.622 µM | 0.55 µM | 0.243 µM | 0.285 µM | 0.622 µM |
| CN(C)c1ccc(N=Nc2c([O-])ccc3ccccc23)cc1.[C-]#[O+].[C-]#[O+].[Ir] | 38.4 µM | > 65.1 µM | 33.5 µM | > 57.7 µM | 25.7 µM | > 69.3 µM | 45.6 µM | 8.64 µM | 31.6 µM | 65.4 µM | 19.5 µM | 22.7 µM | 16.2 µM | 24.9 µM | 1.48 µM | 35.1 µM | 20.7 µM | 2.72 µM | 16.5 µM | 25 µM |
| Fc1ccc(Nc2nccc(-c3c(-c4ccc(C(F)(F)F)cc4)nn4ncccc34)n2)cc1F | > 25 µM | > 25 µM | > 25 µM | > 25 µM | > 25 µM | > 25 µM | > 25 µM | > 25 µM | > 25 µM | > 25 µM | > 25 µM | > 25 µM | > 25 µM | > 25 µM | > 25 µM | > 25 µM | > 25 µM | > 25 µM | > 25 µM | > 25 µM |
| CC1=NN(C(=O)c2ccc(Cl)cc2)C(=O)/C1=C/c1cccc([N+](=O)[O-])c1 | > 100 µM | > 100 µM | > 100 µM | > 100 µM | > 100 µM | > 100 µM | > 100 µM | > 100 µM | > 100 µM | > 100 µM |  |  |  |  |  |  |  |  |  |  |
| O=C(Cc1ccccc1)N/N=C(\C1=Nc2ccc([N+](=O)[O-])cc2NC1O)C(O)c1ccc([N+](=O)[O-])cc1 (stereo not given) | > 100 µM | > 100 µM | > 100 µM | > 100 µM | > 100 µM | > 100 µM | > 100 µM | > 100 µM | > 100 µM | > 100 µM |  |  |  |  |  |  |  |  |  |  |
| Clc1ccc(CN2COc3c(cc(Cl)c4cccnc34)C2)cc1 | 5.49 µM | 3.42 µM | 12.6 µM | 8.92 µM | 11 µM | 6.45 µM | 6.84 µM | 12.9 µM | 31.7 µM | 5.05 µM |  |  |  |  |  |  |  |  |  |  |
| O=c1[nH]cnc2c(C3OC(CO)C(O)C3O)scc12 (stereo not given) | > 100 µM | > 100 µM | > 100 µM | > 100 µM | > 100 µM | > 100 µM | > 100 µM | > 100 µM | > 100 µM | > 100 µM | > 100 µM | 26.9 µM | 77.9 µM | > 100 µM | 99.9 µM | > 100 µM | > 100 µM | 5.03 µM | > 100 µM | 54.8 µM |
| CCOC(=O)c1c(C)n(Cc2ccc(Cl)cc2Cl)c2c1cc1oc(=O)c(=O)n3c(Cc4ccccc4)nc2c13 | 4.87 µM | 3.57 µM | 9.36 µM | 3.54 µM | 4.3 µM | 6.5 µM | 4.44 µM | 3.81 µM | 25.3 µM | 25.8 µM | 2.05 µM | 1.71 µM | 2.69 µM | 1.97 µM | 1.95 µM | 2.45 µM | 1.91 µM | 1.56 µM | 4.65 µM | 5.22 µM |
